Experimental data published in article PMC5078989, “Targeted inhibition of the COP9 signalosome for treatment of cancer” (Nature Communications, 2016).

Tested on: panel of cancer cell lines
Assay: Cell viability (CellTiter-Glo) dose-response across cancer cell line panel;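 also: after 72 h compound incubation with CellTiter-Glo ATP readout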
Assay type: cell-based, human
Conditions: Homo sapiens
Excerpt: Next, we explored the effect of CSN5 inhibition on the viability of cancer cells. To obtain a comprehensive picture, we generated dose–response curves with a CSN5 inhibitor across more than 500 cancer cell lines in a previously described standardized setting[47] (Supplementary Data 1).
A standardized CellTiter-Glo Assay (Promega #G7570) based on the quantification of ATP was applied according to the manufacturer's protocol to measure the amount of viable cells in culture. In brief, cells were seeded into 384-well plates at optimal density for each cell line. After 4 h, compounds were added at different concentrations in growth medium and incubated for another 72 h in a humidifying chamber at 37 °C and 5% CO2. […] EC50 values were calculated from the plot of percentage of inhibition versus inhibitor concentration using the nonlinear regression analysis software Origin 7.5SR6 (OriginLab Corp.).

NS(=O)(=O)OC[C@@H]1C[C@@H](n2ccc3c(N[C@H]4CCc5ccccc54)ncnc32)C[C@@H]1O [MLN4924]
EC50 (MOLT-16, MOLT-16): 0.134 µM
EC50 (MSTO-211H): 0.366 µM
EC50 (MV4-11, MV-4-11): 0.0748 µM
EC50 (Malme-3M): 0.521 µM
EC50 (MeWo): 0.279 µM
EC50 (Mono-Mac-1, MONO-MAC-1): 0.233 µM
EC50 (NALM-6, NALM-6): 0.432 µM
EC50 (NB1, NB-1): 0.213 µM
EC50 (NB-4, NB-4): 0.0609 µM
EC50 (NCI-H23, NCI-H23): 0.532 µM
EC50 (NCI-H28, NCI-H28): 10.8 µM
EC50 (NCI-H82, NCI-H82): 0.0896 µM
EC50 (NCI-H146, NCI-H146): 0.24 µM
EC50 (NCI-H211, NCI-H211): 2.84 µM
EC50 (NCI-H322, NCI-H322): 0.767 µM
EC50 (NCI-H460, NCI-H460): 1.46 µM
EC50 (NCI-H520, NCI-H520): 4.07 µM
EC50 (NCI-H647, NCI-H647): 3.22 µM
EC50 (NCI-H650, NCI-H650): 0.424 µM
EC50 (NCI-H661, NCI-H661): 0.174 µM
EC50 (NCI-H747, NCI-H747): 2.32 µM
EC50 (NCI-H810, NCI-H810): 0.0265 µM
EC50 (NCI-H838, NCI-H838): 0.259 µM
EC50 (NCI-H841, NCI-H841): 0.204 µM
EC50 (NCI-H1048, NCI-H1048): 0.0799 µM
EC50 (NCI-H1299, NCI-H1299): 0.46 µM
EC50 (NCI-H1339, NCI-H1339): 0.067 µM
EC50 (NCI-H1341): 0.0864 µM
EC50 (NCI-H1355, NCI-H1355): 0.7 µM
EC50 (NCI-H1373, NCI-H1373): 0.655 µM
EC50 (NCI-H1437, NCI-H1437): 2.82 µM
EC50 (NCI-H1568, NCI-H1568): 0.68 µM
EC50 (NCI-H1581, NCI-H1581): 0.296 µM
EC50 (NCI-H1650, NCI-H1650): 5.84 µM
EC50 (NCI-H1666, NCI-H1666): 2.27 µM
EC50 (NCI-H1693, NCI-H1693): 0.541 µM
EC50 (NCI-H1703, NCI-H1703): 0.0321 µM
EC50 (NCI-H1755, NCI-H1755): 3.31 µM
EC50 (NCI-H1792, NCI-H1792): 7.9 µM
EC50 (NCI-H1915, NCI-H1915): 1.16 µM
EC50 (NCI-H1975, NCI-H1975): 2.71 µM
EC50 (NCI-H2023, NCI-H2023): 0.376 µM
EC50 (NCI-H2030, NCI-H2030): 0.402 µM
EC50 (NCI-H2073, NCI-H2073): 0.399 µM
EC50 (NCI-H2087, NCI-H2087): 0.493 µM
EC50 (NCI-H2110, NCI-H2110): 0.238 µM
EC50 (NCI-H2122, NCI-H2122): 0.335 µM
EC50 (NCI-H2126, NCI-H2126): 15.2 µM
EC50 (NCI-H2170, NCI-H2170): 0.335 µM
EC50 (NCI-H2172, NCI-H2172): 10.7 µM
EC50 (NCI-H2228, NCI-H2228): 1.33 µM
EC50 (NCI-H2286, NCI-H2286): 0.119 µM
EC50 (NCI-H2444, NCI-H2444): 0.413 µM
EC50 (NCI-H2452, NCI-H2452): 1.81 µM
EC50 (NCI-H3255, NCI-H3255): > 30 µM
EC50 (NCI-N87, NCI-N87): 2.98 µM
EC50 (NO36): 0.873 µM
EC50 (NOMO-1, NOMO-1): 0.137 µM
EC50 (NUGC-3, NUGC-3): 0.929 µM
EC50 (OCI-AML-3, OCI-AML3): 0.0933 µM
EC50 (OCI-AML-5, OCI-AML5): 0.24 µM
EC50 (OCI-Ly3, OCI-LY3): 0.112 µM
EC50 (OCI-M1, OCI-M1): 0.0343 µM
EC50 (OUMS-23, OUMS-23): 0.97 µM
EC50 (OV56, OV56): 0.387 µM
EC50 (OVCAR-3, NIH:OVCAR-3): 0.304 µM
EC50 (OVCAR-4, OVCAR-4): 0.789 µM
EC50 (OVISE): 0.791 µM
EC50 (P3HR-1, P3HR-1): 0.283 µM
EC50 (P12-Ichikawa): 0.208 µM
EC50 (P31-FUJ, P31/FUJ): 0.285 µM
EC50 (PANC-1, PANC-1): 3.93 µM
EC50 (PANC-03-27, Panc 03.27): 0.401 µM
EC50 (PC-3, PC-3): 0.57 µM
EC50 (PC-14, PC-14): 0.884 µM
EC50 (PE/CA-PJ34 (clone C12)): 0.0861 µM
EC50 (PE/CA-PJ49): 0.297 µM
EC50 (PF-382, PF-382): 0.216 µM
EC50 (PK-1, PK-1): 1.37 µM
EC50 (PK-45H): 1.61 µM
EC50 (PK-59, PK-59): 2.03 µM
EC50 (PL45, PL45): 0.305 µM
EC50 (PL-21, PL-21): 0.136 µM
EC50 (PLC-PRF-5, PLC/PRF/5): 3.76 µM
EC50 (PSN1, PSN1): 1.19 µM
EC50 (PaTu 8902, PA-TU-8902): 0.898 µM
EC50 (PaTu 8988s, PA-TU-8988S): 12.2 µM
EC50 (PaTu 8988t, PA-TU-8988T): 0.888 µM
EC50 (Panc 02.03, Panc 02.03): 3.43 µM
EC50 (Panc 04.03, Panc 04.03): 0.245 µM
EC50 (Panc1005, Panc 10.05): 0.368 µM
EC50 (RCM-1, RCM-1): 8.84 µM
EC50 (RD): 0.722 µM
EC50 (RD-ES): 0.162 µM
EC50 (RERF-LC-AI): 0.437 µM
EC50 (RERF-LC-MS): 0.719 µM
EC50 (RKN): 0.342 µM
EC50 (RKO): 0.163 µM
EC50 (RMUG-S): 4.13 µM
EC50 (RPMI 8402, RPMI-8402): 0.092 µM
EC50 (RPMI-7951, RPMI-7951): 1.02 µM
EC50 (RT-112, RT-112): 0.851 µM
EC50 (RVH-421, RVH-421): 0.727 µM
EC50 (Rh41, RH-41): 0.0324 µM
EC50 (SCC-25, SCC-25): 0.561 µM
EC50 (SCaBER): 3.56 µM
EC50 (SEM): 0.487 µM
EC50 (SF8657): > 30 µM
EC50 (SF-268, SF-268): 0.472 µM
EC50 (SH-4, SH-4): 0.147 µM
EC50 (SH-10-TC): 19.1 µM
EC50 (SH-SY5Y): 0.561 µM
EC50 (SJRH30, SJRH30): 0.0729 µM
EC50 (SK-CO-1, SK-CO-1): 0.258 µM
EC50 (SK-ES1, SK-ES-1): 0.177 µM
EC50 (SK-HEP1, SK-HEP-1): 0.384 µM
EC50 (SK-LU-1, SK-LU-1): 0.915 µM
EC50 (SK-MEL3, SK-MEL-3): 0.722 µM
EC50 (SK-MEL-2, SK-MEL-2): 0.37 µM
EC50 (SK-MEL-5, SK-MEL-5): 0.552 µM
EC50 (SK-MEL-28, SK-MEL-28): 0.603 µM
EC50 (SK-MEL-30, SK-MEL-30): 0.418 µM
EC50 (SK-MES-1, SK-MES-1): 0.725 µM
EC50 (SK-N-SH): 1.14 µM
EC50 (SK-OV-3, SK-OV-3): 1.44 µM
EC50 (SKM-1, SKM-1): 0.0856 µM
EC50 (SKNBE2, SK-N-BE(2)): 0.334 µM
EC50 (SNB-19, SNB-19): 0.626 µM
EC50 (SNG-M): 0.249 µM
EC50 (SNU668, SNU-668): 1.52 µM
EC50 (SNU878, SNU-878): 0.746 µM
EC50 (SNU-8): 0.552 µM
EC50 (SNU-16, SNU-16): 0.272 µM
EC50 (SNU-61): 19 µM
EC50 (SNU-81): 0.175 µM
EC50 (SNU-175): 0.317 µM
EC50 (SNU-213): 2.08 µM
EC50 (SNU-324): 0.685 µM
EC50 (SNU-349): 0.319 µM
EC50 (SNU-387, SNU-387): 3.86 µM
EC50 (SNU-398, SNU-398): 0.294 µM
EC50 (SNU-410): 0.351 µM
EC50 (SNU-423, SNU-423): 0.62 µM
EC50 (SNU-449, SNU-449): 3.54 µM
EC50 (SNU-475, SNU-475): 2.31 µM
